The values below come from US20230276792A1, “SELECTIVE HERBICIDES BASED ON SUBSTITUTED ISOXAZOLIN CARBOXAMIDES AND CLOQUINTOCET-MEXYL” (Bayer Aktiengesellschaft, priority 2020, published 2023).

Holding throughout (assay type): in vivo
Assay [1] relates to spring barley, HORVS Montoya. The experiment in a line: Tank-mix post-emergence crop damage, herbicide with and without safener cloquintocet-mexyl, greenhouse. The arrangement: key to Reduction [Difference]: damage without safener − damage with safener, % points (0–100% scale). As for the experimental part: Seeds of crops (spring wheat, TRZAS; spring barley, HORVS; maize, ZEAMA) were placed in sandy loam soil in peat pots, covered with soil and cultivated in a greenhouse under good growth conditions. Two to three weeks after sowing, the test plants were treated at the 1 to 3-leaf stage. The herbicide/safener active compound combinations according to the invention, formulated as wettable powders or emulsion concentrates, and, in parallel tests, the correspondingly formulated individual active compounds were sprayed onto the green parts of the plants in various dosages using an amount of water of 300 l/ha (converted).
The pots were returned under good growing conditions in a glasshouse and a visual assessment of herbicidal effects was made at intervals from 1 to 3 weeks after herbicide application (DAT=days after treatment). Assessment was on a percentage basis in comparison with untreated control plants (0%=no injury, 100%=complete kill).
(§1) Reduction [Difference]=herbicide damage without safener−herbicide damage with safener
(§2) Reduction [%]=(Reduction [Difference]*100)/herbicide damage without safener
(§3) a) Plant Species, Variety: HORVS Montoya, Safener (SAF): Cloquintocet-Mexyl

Assay [2] has as its system spring wheat, TRZAS Triso. The experiment in a line: Safener seed treatment, post-emergence herbicide application, crop damage. Conditions: for HER effect + SAF [%] / Reduction [%]: cloquintocet-mexyl 0, 5 g a.i./kg seed; for HER effect [%]: without safener.
Excerpt: (§4) For safener seed treatment trials, sufficient seed amounts of the respective crops (spring wheat (TRZAS); spring barley (HORVS)) were weighed into screw cap glass bottles with a minimum volume trice of the seeds.
(§5) As a first step, specified safeners formulated as wettable powder (WP) or wettable granules (WG) were weighed out for the required dosages (g a.i./kg seed), corresponding to the seed amounts. The safener amounts were mixed with a coloured slurry blind formulation type, pre-diluted with milk at 3.5% fat rate (25 mgs slurry formulation plus 2 ml milk per 10 grams of seed). A tube roller was used for coating. The solutions were gradually pipetted each on the rotating seeds followed by coating for min. 3 hours until all liquid had been soaked up by the seeds. Thereafter, the coated seeds were put flat on open trays for drying over night at room temperature.
(§6) Treated seeds were then placed into pots (7 cm diameter) on the surface of sandy loam, pressed down, flat covered with additional soil and finally covered with sandy soil, also pressed down, watered, and kept under good growth conditions in a greenhouse, until the plants had reached 2-leaf-stage (BBCH 12).
(§7) At that stage, post-emergence application of the specified herbicides was done on: • a) pot sets containing plants with safener-coated seeds as described above, • b) as a reference, pot sets of plants without seed treatment.
(§8) The herbicides were formulated as wettable powder (WP). Equivalent to the spray area, compound amounts were weighed out and diluted related to the water application rate (300 l/ha) to an aqueous suspension plus additive (1 l/ha MERO). Dosage related equivalents were conventionally sprayed on trays with the potted plants.
(§9) After application, the test plants were kept under good growth conditions in a greenhouse. Assessment timings were 10 and 21 days after treatment (DAT) with the herbicide, by visual scoring of the crop damage in % (comparison of untreated with treated plants, either sprayed only with herbicide or with herbicide on plants with treated seeds).
as §1, §2
b) Plant Species, Variety: TRZAS Triso, Safener (SAF): Cloquintocet-Mexyl

In assay [3] the test system is spring barley, HORVS Montoya. The description is as above. The arrangement: key to Reduction [Difference]: % crop damage without safener minus % damage with safener. Conditions: for Reduction [%] / Reduction [Difference] / HER effect + SAF: cloquintocet-mexyl 0, 5 g a.i./kg seed; for HER effect: without safener.
Excerpt: as §4, §5, §6, §7, §8, §9, §1, §2, §3

Where [4] appears, read: 10 DAT, HER dose 48 g a.i./ha, cloquintocet-mexyl 100 g a.i./ha.
Where [5] appears, read: 10 DAT, HER dose 8 g a.i./ha, cloquintocet-mexyl 50 g a.i./ha.
Where [6] appears, read: 21 DAT, HER dose 1, 5 g a.i./ha.
Setting [7] is: 21 DAT, HER dose 2 g a.i./ha, cloquintocet-mexyl 100 g a.i./ha.
Where [8] appears, read: 10 DAT, HER dose 1, 5 g a.i./ha.
Where [9] appears, read: 10 DAT, HER dose 32 g a.i./ha, cloquintocet-mexyl 100 g a.i./ha.

For the molecule `CCOC(=O)C1C=CC(NC(=O)C2(C(F)(F)F)CC(c3cc(OC)cc(OC)c3)=NO2)C1` (mixture of isomers) [Example 1.12], in assay [1] (setting [4]), the “HER effect + SAF” value stood at 10%, the “Reduction [%]” value came out at 83% and the “Reduction [Difference]” value stood at 50.
With `CCOC(=O)C1CC(NC(=O)C2(C)CC(c3cccc(F)c3)=NO2)CO1` (mixture of isomers) [Example 1.67], the “Reduction [%]” value in assay [1] (10 DAT, HER dose 16 g a.i./ha, cloquintocet-mexyl 100 g a.i./ha) was determined as 83%; in assay [3] (10 DAT, HER dose 4 g a.i./ha), 67%; in assay [3] (10 DAT, HER dose 16 g a.i./ha), 67%. Further, the “HER effect + SAF [%]” value in assay [2] (10 DAT, HER dose 4 g a.i./ha) stood at 10%; in assay [2] (10 DAT, HER dose 16 g a.i./ha), 20%. The “HER effect [%]” value in assay [2] (10 DAT, HER dose 4 g a.i./ha) is reported as 50%; in assay [2] (10 DAT, HER dose 16 g a.i./ha) it was 70%. Besides, the “Reduction [Difference]” value in assay [3] (10 DAT, HER dose 4 g a.i./ha) came to 20.
Regarding `CC(C)OC(=O)C1CC(NC(=O)C2(C(C)(F)F)CC(c3cc(F)cc(F)c3)=NO2)CO1` (mixture of isomers) [Example 1.88], the “Reduction [%]” value in assay [1] (21 DAT, HER dose 1, 5 g a.i./ha, cloquintocet-mexyl 50 g a.i./ha) amounted to 50%. For the same molecule, in assay [2] (21 DAT, HER dose 2 g a.i./ha), the “HER effect + SAF [%]” value was 20%, the “Reduction [%]” value worked out at 71% and the “HER effect [%]” value was 70%. In assay [2] (21 DAT, HER dose 8 g a.i./ha), the “HER effect + SAF [%]” value was determined as 20% and the “HER effect [%]” value stood at 85%. For the same molecule, the “Reduction [%]” value in assay [3] (21 DAT, HER dose 2 g a.i./ha) was 40%. In assay [3] (21 DAT, HER dose 8 g a.i./ha), the “HER effect + SAF” value is reported as 40%, the “Reduction [%]” value is recorded as 53% and the “Reduction [Difference]” value is 45.
For the molecule `COC(=O)C1(C)CC(NC(=O)C2(C(C)(F)F)CC(c3cc(F)cc(F)c3)=NO2)CO1` (mixture of isomers) [Example 1.94], the “Reduction [Difference]” value in assay [1] (setting [5]) was 90; in assay [3] (10 DAT, HER dose 8 g a.i./ha), 90; in assay [3] (10 DAT, HER dose 32 g a.i./ha), 80. In addition, the “HER effect + SAF [%]” value was found to be 0% in assay [2] (setting [6]); 10% in assay [2] (21 DAT, HER dose 6 g a.i./ha); 20% in assay [2] (21 DAT, HER dose 24 g a.i./ha). Moreover, the “HER effect [%]” value in assay [2] (setting [6]) is 20%; in assay [2] (21 DAT, HER dose 6 g a.i./ha), 85%; in assay [2] (21 DAT, HER dose 24 g a.i./ha), 85%. The “Reduction [%]” value in assay [3] (10 DAT, HER dose 32 g a.i./ha) amounted to 89%.
As for `CC1(C(=O)NC2CC=C(C(=O)NS(C)(=O)=O)C2)CC(c2cc(F)cc(F)c2)=NO1` (mixture of isomers) [Example 1.61], in assay [2] (10 DAT, HER dose 8 g a.i./ha), the “HER effect + SAF [%]” value amounted to 0%, the “Reduction [%]” value came to 100% and the “HER effect [%]” value stood at 50%. In addition, in assay [2] (10 DAT, HER dose 32 g a.i./ha), the “HER effect + SAF [%]” value is 0%, the “Reduction [%]” value was 100% and the “HER effect [%]” value stood at 50%.
Regarding `C=CC1(C(=O)NC2C=CC(C(=O)OC)C2)CC(c2cc(F)cc(F)c2)=NO1` (stereo not drawn) [Example 1.26], in assay [1] (setting [7]), the “HER effect + SAF” value came out at 10%, the “Reduction [%]” value came to 83% and the “Reduction [Difference]” value was determined as 50. In assay [2] (21 DAT, HER dose 2 g a.i./ha), the “HER effect + SAF [%]” value worked out at 10%, the “Reduction [%]” value was found to be 89% and the “HER effect [%]” value is listed as 90%. In assay [2] (21 DAT, HER dose 8 g a.i./ha), the “HER effect + SAF [%]” value is 30%, the “Reduction [%]” value is given as 68% and the “HER effect [%]” value worked out at 93%. For the same molecule, in assay [3] (21 DAT, HER dose 2 g a.i./ha), the “HER effect + SAF” value turned out to be 30%, the “Reduction [%]” value worked out at 68%, the “Reduction [Difference]” value came out at 63 and the HER effect was 93%. Besides, in assay [3] (21 DAT, HER dose 8 g a.i./ha), the “Reduction [%]” value was 47%, the “Reduction [Difference]” value was determined as 45 and the HER effect is reported as 95%.
In the case of `CC(C)OC(=O)C1CC(NC(=O)C2(C)CC(c3cccc(F)c3)=NO2)CO1` (mixture of isomers) [Example 1.78], the “HER effect + SAF [%]” value is on record as 0% in assay [2] (setting [8]); 0% in assay [2] (10 DAT, HER dose 6 g a.i./ha); 10% in assay [2] (10 DAT, HER dose 24 g a.i./ha). The “HER effect [%]” value in assay [2] (setting [8]) is 20%; in assay [2] (10 DAT, HER dose 6 g a.i./ha) it was 70%; in assay [2] (10 DAT, HER dose 24 g a.i./ha), 70%.
In the case of `CSCCOC(=O)C1C=CC(NC(=O)C2(C(F)(F)F)CC(c3cc(F)cc(F)c3)=NO2)C1` (stereo not drawn) [Example 1.7], in assay [2] (10 DAT, HER dose 2 g a.i./ha), the “HER effect + SAF [%]” value is 0% and the “HER effect [%]” value was 50%. In assay [2] (10 DAT, HER dose 8 g a.i./ha), the “HER effect + SAF [%]” value was 30%, the “Reduction [%]” value came out at 68% and the “HER effect [%]” value amounted to 93%. For the same molecule, in assay [2] (10 DAT, HER dose 32 g a.i./ha), the “HER effect + SAF [%]” value turned out to be 50%, the “Reduction [%]” value worked out at 46% and the “HER effect [%]” value was 93%. In addition, in assay [3] (21 DAT, HER dose 2 g a.i./ha), the “HER effect + SAF” value stood at 30% and the “Reduction [Difference]” value was found to be 40. In assay [3] (21 DAT, HER dose 32 g a.i./ha), the “HER effect + SAF” value came out at 60%, the “Reduction [%]” value was determined as 37% and the “Reduction [Difference]” value is 35.
Regarding `C=CC1(C(=O)NC2COC(C(=O)OCCOC)C2)CC(c2cc(C)cc(F)c2)=NO1` (mixture of isomers) [Example 1.65], in assay [2] (10 DAT, HER dose 8 g a.i./ha), the “HER effect + SAF [%]” value is recorded as 0% and the “HER effect [%]” value stood at 20%. In assay [3] (10 DAT, HER dose 8 g a.i./ha), the “Reduction [Difference]” value is 80. For the same molecule, in assay [3] (10 DAT, HER dose 32 g a.i./ha), the “HER effect + SAF” value came out at 10%, the “Reduction [%]” value amounted to 88% and the “Reduction [Difference]” value stood at 70.
Consider `C=CCOC(=O)C1CC(NC(=O)C2(C=C)CC(c3cc(C)cc(F)c3)=NO2)CO1` (mixture of isomers) [Example 1.85], for which, in assay [3] (10 DAT, HER dose 32 g a.i./ha), the “HER effect + SAF” value was found to be 10%, the “Reduction [%]” value was found to be 88% and the “Reduction [Difference]” value is recorded as 70.
Consider `COC(=O)C1C=CC(NC(=O)C2(C(F)(F)F)CC(c3cccc(F)c3)=NO2)C1` (stereo not drawn) [Example 1.18], for which, in assay [3] (10 DAT, HER dose 32 g a.i./ha), the “Reduction [Difference]” value is reported as 80.
For the molecule `COC(=O)C1CC(NC(=O)C2(OC)CC(c3cc(F)cc(F)c3)=NO2)CO1` (mixture of isomers) [Example 1.72], the “Reduction [%]” value in assay [1] (setting [5]) worked out at 67%. Besides, in assay [1] (setting [9]), the “HER effect + SAF” value is reported as 20% and the “Reduction [%]” value stood at 60%. Besides, in assay [2] (21 DAT, HER dose 32 g a.i./ha), the “HER effect + SAF [%]” value is recorded as 10% and the “HER effect [%]” value amounted to 60%.
